This passage reports IC50 results from ChEMBL document CHEMBL4007415, “Thieno[3,2-b]pyrrole-5-carboxamides as New Reversible Inhibitors of Histone Lysine Demethylase KDM1A/LSD1. Part 1: High-Throughput Screening and Preliminary Exploration” (J Med Chem, 2017).

The target of the experiment is LSD1/CoREST complex (Homo sapiens, UniProt O60341).

Description: Inhibition of recombinant human KDM1A/CoREST complex expressed in Escherichia coli using biotinylated H3K4me1 peptide as substrate preincubated for 20 mins measured after 1 hr by TR-FRET assay

In general, IC50 refers to the concentration at which inhibition is half-maximal. Higher therefore signals a need for much substance. The compound `Cn1c(C(=O)Nc2ccccn2)cc2sccc21` came in with an IC50 greater than 100 µM.
For the compound `Cn1c(C(=O)Nc2ncccn2)cc2sccc21`, the IC50 was greater than 100 µM.
The value for `O=C(Nc1ccccc1)c1cc2sccc2n1-c1ccccc1` was greater than 100 µM; that for `Cn1c(C(=O)Nc2cccc(COc3ccc(O)cc3)c2)cc2sccc21` was 25.2 µM; that for `Cn1cnc2[nH]c(C(=O)Nc3ccccc3)cc21` was greater than 100 µM.
The same measure for `Cn1c(C(=O)Nc2ccccc2)cc2sc(Br)cc21`: greater than 100 µM; for `O=C(Nc1ccccc1)c1cc2sccc2[nH]1`: greater than 100 µM; for `Cc1c(C(=O)Nc2ccccc2)n(C)c2ccsc12`: greater than 100 µM.
The value for `Cn1c(C(=O)Nc2cccc(C(N)=O)c2)cc2sccc21` was 97.3 µM; that for `Cn1c(C(=O)Nc2cccc(Oc3ccncc3)c2)cc2sccc21` was 89.9 µM; that for `Cn1c(C(=O)Nc2ccccc2)cc2sc(F)cc21` was greater than 100 µM.
`O=C(Nc1ccccc1)c1cc2sccc2s1` came in with an IC50 greater than 100 µM.
The compound `Cn1c(C(=O)Nc2cccc(OCc3ccncc3)c2)cc2sccc21` registered an IC50 of 7.2 µM.
Compound `Cn1c(C(=O)Nc2cccc(COc3ccncc3)c2)cc2sccc21` came in with an IC50 of 9.4 µM.
`Cn1c(C(=O)Nc2ccccc2)cc2ncsc21`: the IC50 was greater than 100 µM.
The value for `Cn1ncc2cc(C(=O)Nc3ccccc3)n(C)c21` was greater than 100 µM; that for `Cn1c(C(=O)Nc2cccc(Cl)c2)cc2sccc21` was 18.7 µM.
The same measure for `Cn1c(C(=O)Nc2cccnc2)cc2sccc21`: 61.5 µM.
For the compound `CN(C)Cc1cc2c(cc(C(=O)Nc3ccccc3)n2C)s1`, the IC50 is greater than 100 µM.
The same measure for `Cn1c(C(=O)Nc2ccncc2)cc2sccc21`: greater than 100 µM.
The same measure for `O=C(Nc1ccccc1)c1ccc2sccc2c1`: greater than 100 µM.
As for `CCCn1c(C(=O)Nc2ccccc2)cc2sccc21`, half-maximal inhibition (IC50) was put at 53.2 µM.
In turn, `Cn1c(C(=O)Nc2ccccc2)cc2sc(I)cc21` gave an IC50 greater than 100 µM.
The same measure for `CN1CCN(c2cccc(NC(=O)c3cc4sccc4n3C)c2)CC1`: 21.5 µM.
The value for `COc1cccc(NC(=O)c2cc3sccc3n2C)c1` was 26.5 µM; that for `Cn1c(C(=O)Nc2ccccc2)c(I)c2sc(I)cc21` was greater than 100 µM; that for `CN(C)Cc1cccc(NC(=O)c2cc3sccc3n2C)c1` was 16.7 µM.
The value for `Cn1c(C(=O)Nc2ccncn2)cc2sccc21` was greater than 100 µM; that for `Cn1c(C(=O)Nc2cccc(CO)c2)cc2sccc21` was 52.3 µM; that for `O=C(Nc1ccccc1)c1cc2sccc2n1S(=O)(=O)c1ccccc1` was greater than 100 µM.
The compound `Cn1c(C(=O)Nc2ccccc2)nc2sccc21` showed an IC50 greater than 100 µM.
The value for `COCc1c(C(=O)Nc2ccccc2)n(C)c2ccsc12` was greater than 100 µM.
The same measure for `CSCc1cccc(NC(=O)c2cc3sccc3n2C)c1`: 7.4 µM.
`Cn1c(C(=O)Nc2cccc(Br)c2)cc2sccc21` gave an IC50 greater than 100 µM.
The value for `Cn1c(C(=O)Nc2cccc(CN3CCOCC3)c2)cc2sccc21` was 11.1 µM.
The same measure for `Cn1c(C(=O)Nc2ccccc2)c(I)c2sccc21`: greater than 100 µM; for `Cn1c(C(=O)Nc2cccc(F)c2)cc2sccc21`: 22.2 µM; for `CCn1c(C(=O)Nc2ccccc2)cc2sccc21`: 9.3 µM.
In the case of `Cc1csc2cc(C(=O)Nc3ccccc3)n(C)c12`, the half-inhibitory concentration (IC50) is greater than 100 µM.
The value for `Cn1c(C(=O)Nc2ccccc2)cc2occc21` was 89.5 µM; that for `CN1CCC(COc2cccc(NC(=O)c3cc4sccc4n3C)c2)CC1` was 2.2 µM.
The same measure for `Cc1cc2c(cc(C(=O)Nc3ccccc3)n2C)s1`: greater than 100 µM; for `Cn1cnc2c1cc(C(=O)Nc1ccccc1)n2C`: greater than 100 µM; for `NCCn1c(C(=O)Nc2ccccc2)cc2sccc21`: 48.1 µM.
As for `CN(C)c1cccc(NC(=O)c2cc3sccc3n2C)c1`, the IC50 was 29.6 µM.
The value for `Cn1c(C(=O)Nc2cccc(COc3ccccc3)c2)cc2sccc21` was greater than 100 µM.
The same measure for `Cn1c(C(=O)Nc2ccccc2)c(Cl)c2sccc21`: greater than 100 µM; for `Cc1sc2cc(C(=O)Nc3ccccc3)n(C)c2c1C`: greater than 100 µM; for `CN(C)Cc1c(C(=O)Nc2ccccc2)n(C)c2ccsc12`: greater than 100 µM.
The same measure for `Cn1c(C(=O)Nc2ccccc2)cc2ccsc21`: 38.8 µM.
The compound `Cn1c(C(=O)Nc2ccccc2)cc2scnc21` displayed an IC50 greater than 100 µM.
The same measure for `Cn1c(C(=O)Nc2ccccc2)cc2sccc21`: 25.7 µM; for `Cn1ccc2c1cc(C(=O)Nc1ccccc1)n2C`: greater than 100 µM.
